Literature values in patent US5185366A, “Method for treatment and prevention of diseases caused by enveloped viruses, including herpes simplex virus types 1 and 2 diseases, using 3,4-dihydroxy-2H-benzopyran-2H-one” (Ohio State University Research Foundation, priority 1990, dated 1993).

How the values were obtained:
hepatitis B virus (HBV) = conditions: 5-250 μg/mL, Kessler et al.; cited from earlier work
HBV DNA polymerase = conditions: 5-250 μg/mL, Kessler et al.; cited from earlier work

C[C@@H]1[C@H](O)[C@@H](C)/C=C/C=C/C=C/C=C/C=C/C=C/C=C/[C@H](O[C@@H]2O[C@H](C)[C@@H](O)[C@H](N)[C@@H]2O)C[C@@H]2O[C@](O)(C[C@@H](O)C[C@@H](O)[C@H](O)CC[C@@H](O)C[C@@H](O)CC(=O)O[C@H]1C)C[C@H](O)[C@H]2C(=O)O [amphotericin B]
effect on HBV particle / envelope (hepatitis B virus (HBV)): changes in electron microscopic appearance of the virus, increased penetration of negative stain into the lipid envelope, disruption of the particle
increase in density of HBV (hepatitis B virus (HBV)): 1.165 to 1.225 g/mL
HBV DNA polymerase activity (HBV DNA polymerase): concentration dependent increase in HBV DNA polymerase activity
